For series [1], the system named is Mycobacterium tuberculosis. In words: Inhibition of proteosynthesis in Mycobacterium tuberculosis H37Ra assessed as reduction of [14C]-methionine incorporation at 0.05 ug/ml preincubated for 1 hr followed by radiolabeling with [14C]-methionine for 24 hrs by scintillation spectrometry. Type of series: functional.
Series [2] is described as follows: Cytotoxicity against human HuH7 cells assessed as cell viability after 24 hrs by MTS assay. Type of series: cell-based. To be noted: Huh-7, 24 h.
Series [3] in a line: Cytotoxicity against MDCK2-MDR1 cells assessed as cell viability at 20 uM after 24 hrs by MTS assay. To be noted: dog, read-out: Activity. Type of series: ADME, cell-based, Canis lupus familiaris, MDCK-II.
The nature of series [4]: Cytotoxicity against human HuH7 cells assessed as cell viability after 48 hrs by MTS assay. The class given is cell-based. The note with it: Huh-7, 48 h.
Series [5] concerns Mycobacterium tuberculosis. Briefly: Antimycobacterial activity against Mycobacterium tuberculosis H37Ra assessed as growth inhibition at 0.05 ug/ml preincubated for 1 hr followed by radiolabeling with [14C]-uracil, [14C]-methionine for 24 hrs. The class given is functional, organism-based.
Series [6] can be described thus: Cytotoxicity against MDCK2-MDR1 cells assessed as cell viability at 20 uM after 48 hrs by MTS assay. The class given is ADME, cell-based, Canis lupus familiaris, MDCK-II. To be noted: dog, read-out: Activity.
For series [7], the system named is HeLa. Briefly: Cytotoxicity against human HeLa cells assessed as cell viability after 48 hrs by MTS assay. Type of series: cell-based.
The test system of series [8] is HeLa. Briefly: Cytotoxicity against human HeLa cells assessed as cell viability after 24 hrs by MTS assay. The class given is cell-based.
Series [9] can be described thus: Cytotoxicity against human HuH7 cells assessed as cell viability at 20 uM after 48 hrs by MTS assay. Type of series: cell-based, Huh-7. The note with it: read-out: Activity.
Series [10] is described as follows: Cytotoxicity against MDCK2-MDR1 cells assessed as cell viability after 24 hrs by MTS assay. To be noted: Canis lupus familiaris, MDCK-II. Type of series: ADME, cell-based.
Series [11] in a line: Cytotoxicity against human HeLa cells assessed as cell viability at 20 uM after 48 hrs by MTS assay. Type of series: cell-based. To be noted: read-out: Activity.
A short description of series [12]: Cytotoxicity against human HuH7 cells assessed as cell viability at 20 uM after 24 hrs by MTS assay. Type of series: cell-based, Huh-7. The note with it: read-out: Activity.
The nature of series [13]: Cytotoxicity against human HeLa cells assessed as cell viability at 20 uM after 24 hrs by MTS assay. To be noted: read-out: Activity. Type of series: cell-based.
Series [14] deals with Mycobacterium tuberculosis. Briefly: Inhibition of RNA biosynthesis in Mycobacterium tuberculosis H37Ra assessed as reduction of [14C]-uracil incorporation at 0.05 ug/ml preincubated for 1 hr followed by radiolabeling with [14C]-uracil for 24 hrs by scintillation spectrometry. The class given is functional.
For series [15], the system named is Hepatocyte. In words: Cytotoxicity against primary human hepatocytes assessed as cell viability after 48 hrs by MTS assay. Type of series: cell-based.
The nature of series [16]: Cytotoxicity against primary human hepatocytes assessed as cell viability at 20 uM after 48 hrs by MTS assay. Type of series: cell-based, Hepatocyte. The note with it: read-out: Activity.
A short description of series [17]: Cytotoxicity against MDCK2-MDR1 cells assessed as cell viability after 48 hrs by MTS assay. Type of series: ADME, cell-based. The note with it: Canis lupus familiaris, MDCK-II.

Activity calls are given as the source filed them. The calls are words filed in the database; no cut-off is given here.

For `CO[C@H]1/C=C/O[C@@]2(C)Oc3c(C)c(O)c4c(O)c(c(/C=N/N5CCN(C)CC5)c(O)c4c3C2=O)NC(=O)/C(C)=C\C=C\[C@H](C)[C@H](O)[C@@H](C)[C@@H](O)[C@@H](C)[C@H](OC(C)=O)[C@@H]1C` [RIFAMPIN], the inhibition at 0.05 µg/mL in series [1] came to 61%; in series [14], 68%. The IC50 in [2], in series [4], in [7], in series [8], in series [10] and in series [15] was above 20 µM in each case. For the same compound, the IC50 in [17] was above 20 µM. The viability at 24 h, 20 µM is 103% in [3], 98.3% in series [12] and 102% in [13]. In series [5], the “growth inhibition (GI)” value is “Active”. Moreover, the viability at 48 h, 20 µM in [6] was 106%; in series [9], 52.7%; in series [11], 100%; in series [16], 123%.

For the origin of these results see ChEMBL document CHEMBL3797190, “Development of 3,5-Dinitrobenzylsulfanyl-1,3,4-oxadiazoles and Thiadiazoles as Selective Antitubercular Agents Active Against Replicating and Nonreplicating Mycobacterium tuberculosis” (J Med Chem, 2016).
